Results taken from ChEMBL document CHEMBL1155702, “New tirucallane-type triterpenes from Dysoxylum variabile” (J Nat Prod, 2001).
In brackets after ≈: the same amount, converted by molar mass.

What follows are compounds tested on KB (assay: Cytotoxicity against human KB cells).
Assay type: functional, cell-based
`C[C@H](C[C@@H](O)[C@@H]1OC1(C)C)[C@@H]1CC[C@]2(C)C3=CC[C@H]4C(C)(C)C(=O)CC[C@]4(C)[C@H]3CC[C@@]12C` [NILOTICIN] was tested, and the IC50 was 8.4 µg/mL (≈ 18.4 µM).
Compound `C[C@H](C[C@@H](O)[C@@H]1OC1(C)C)[C@@H]1CC[C@]2(C)[C@]34O[C@@H]3C[C@H]3C(C)(C)C(=O)CC[C@]3(C)[C@H]4CC[C@@]12C` [DYVARIABILIN B] has an IC50 of 10 µg/mL (≈ 21.2 µM).
With `C[C@H](C[C@@H](O)[C@@H]1OC1(C)C)[C@@H]1CC[C@]2(C)[C@@]34O[C@H]3C[C@H]3C(C)(C)C(=O)CC[C@]3(C)[C@H]4CC[C@@]12C` [DYVARIABILIN C] the IC50 was 8.7 µg/mL (≈ 18.4 µM).
